Test results as given in US12655126B2, “Imidazole-pyrazole derivatives as antibacterials” (Hoffmann-La Roche Inc., priority 2020, dated 2026).
Structures can show the parent of a compound that is named as a salt.

Tested on: Acinetobacter baumannii ATCC17961
Assay: Antimicrobial susceptibility testing: 90% growth inhibitory concentration (IC90) determination
Type: cell-based
Conditions: Acinetobacter baumannii ATCC17961; Iso-Sensitest broth; growth by OD 600 nm over 16 h; 90% growth inhibitory concentration; read-out: ATCC 17961 IC90
Method: Antimicrobial Susceptibility Testing:
90% Growth Inhibitory Concentration (IC90) Determination
The in vitro antimicrobial activity of the compounds was determined according to the following procedure:
The assay used a 10-points Iso-Sensitest broth medium to measure quantitatively the in vitro activity of the compounds against Acinetobacter baumannii ATCC17961.
Stock compounds in DMSO were serially twofold diluted (e.g. range from 50 to 0.097 μM final concentration) in 384 wells microtiter plates and inoculated with 49 μl the bacterial suspension in Iso-Sensitest medium to have a final cell concentration of ˜5×10^(5) CFU/ml in a final volume/well of 50 ul/well. Microtiter plates were incubated at 35±2° C.
Bacterial cell growth was determined with the measurement of optical density at λ=600 nm each minutes over a time course of 16 h. Growth inhibition was calculated during the logarithmic growth of the bacterial cells with determination of the concentration inhibiting 50% (IC50) and 90% (IC90) of the growth.
Table 1 provides the 90% growth inhibitory concentrations (IC90) in micromoles per liter of the compounds of present invention obtained against the strain Acinetobacter baumannii ATCC17961.

Row | SMILES | IC90
1 | COCc1c[nH]nc1-n1cc(-c2cnc(C(=O)Nc3ccc(C(=O)N4CCN(C(=O)C5CC[N+](C)(C)CC5)CC4)c(Cl)c3)n2C)c(C(F)(F)F)n1 [Example K3, N-[3-chloro-4-[4-(1,1-dimethylpiperidin-1-ium-4-carbonyl)piperazine-1-carbonyl]phenyl]-5-[1-[4-(methoxymethyl)-1H-pyrazol-3-yl]-3-(trifluoromethyl)pyrazol-4-yl]-1-methyl-imidazole-2-carboxamide] | 1300 nM
2 | COCCOc1ccc(-n2cc(-c3cnc(C(=O)Nc4ccc(C(=O)N5CCN(C(=O)C6CC[N+](C)(C)CC6)CC5)c(Cl)c4)n3C)c(C(F)(F)F)n2)nc1 [Example G1, N-[3-Chloro-4-[4-(1,1-dimethylpiperidin-1-ium-4-carbonyl)piperazine-1-carbonyl]phenyl]-5-[1-[5-(2-methoxyethoxy)-2-pyridyl]-3-(trifluoromethyl)pyrazol-4-yl]-1-methyl-imidazole-2-carboxamide; formate] | 350 nM
3 | CNc1ccc(-n2cc(-c3cnc(C(=O)Nc4ccc(C(=O)N5CCN(C(=O)C6CC[N+](C)(C)CC6)CC5)c(C)c4)n3C)c(C(F)(F)F)n2)nc1 [Example E7, N-[4-[4-(1,1-dimethylpiperidin-1-ium-4-carbonyl)piperazine-1-carbonyl]-3-methyl-phenyl]-1-methyl-5-[1-[5-(methylamino)-2-pyridyl]-3-(trifluoromethyl)pyrazol-4-yl]imidazole-2-carboxamide; formate] | 330 nM
4 | Cn1c(-c2cn(-c3ncccn3)nc2C(F)(F)F)cnc1C(=O)Nc1ccc(C(=O)N2CC[N+](C)(C)CC2)c(Cl)c1 [Example B9, 4-(2-chloro-4-(1-methyl-5-(1-(pyrimidin-2-yl)-3-(trifluoromethyl)-1H-pyrazol-4-yl)-1H-imidazole-2-carboxamido)benzoyl)-1,1-dimethylpiperazin-1-ium] | 5200 nM
5 | Cn1c(-c2cn(-c3ccc(N)cn3)nc2C(F)(F)F)cnc1C(=O)Nc1ccc(C(=O)N2CCN(C(=O)C3(O)CC[N+](C)(C)CC3)CC2)c(Cl)c1 [Example D10, 5-[1-(5-amino-2-pyridyl)-3-(trifluoromethyl)pyrazol-4-yl]-N-[3-chloro-4-[4-(4-hydroxy-1,1-dimethyl-piperidin-1-ium-4-carbonyl)piperazine-1-carbonyl]phenyl]-1-methyl-imidazole-2-carboxamide; formate] | 330 nM

Now from value to compound:

Row | IC90 | SMILES
6 | 150 nM | Cn1c(-c2cn(-c3ccc(N)cn3)nc2C(F)(F)F)cnc1C(=O)Nc1ccc(C(=O)N2CCN(C(=O)C3CC[N+](C)(C)CC3)CC2)c(Cl)c1 [Example D3, 5-[1-(5-amino-2-pyridyl)-3-(trifluoromethyl)pyrazol-4-yl]-N-[3-chloro-4-[4-(1,1-dimethylpiperidin-1-ium-4-carbonyl)piperazine-1-carbonyl]phenyl]-1-methyl-imidazole-2-carboxamide; formate]
7 | 510 nM | Cn1c(-c2cn(-c3ccc(N)c(F)n3)nc2C(F)(F)F)cnc1C(=O)Nc1ccc(C(=O)N2CCN(C(=O)C3CC[N+](C)(C)CC3)CC2)c(Cl)c1 [Example A10, 5-[1-(5-amino-6-fluoro-2-pyridyl)-3-(trifluoromethyl)pyrazol-4-yl]-N-[3-chloro-4-[4-(1,1-dimethylpiperidin-1-ium-4-carbonyl)piperazine-1-carbonyl]phenyl]-1-methyl-imidazole-2-carboxamide]
8 | 4360 nM | Cc1c[nH]nc1-n1cc(-c2cnc(C(=O)Nc3ccc(C(=O)N4CCN(C(=O)C5CC[N+](C)(C)CC5)CC4)c(Cl)c3)n2C)c(C(F)(F)F)n1 [Example K2, N-[3-chloro-4-[4-(1,1-dimethylpiperidin-1-ium-4-carbonyl)piperazine-1-carbonyl]phenyl]-1-methyl-5-[1-(4-methyl-1H-pyrazol-3-yl)-3-(trifluoromethyl)pyrazol-4-yl]imidazole-2-carboxamide; 2,2,2-trifluoroacetate]
9 | 300 nM | COCCNc1ccc(-n2cc(-c3cnc(C(=O)Nc4ccc(C(=O)N5CCN(C(=O)C6CC[N+](C)(C)CC6)CC5)c(Cl)c4)n3C)c(C(F)(F)F)n2)nc1 [Example E2, N-[3-chloro-4-[4-(1,1-dimethylpiperidin-1-ium-4-carbonyl)piperazine-1-carbonyl]phenyl]-5-[1-[5-(2-methoxyethylamino)-2-pyridyl]-3-(trifluoromethyl)pyrazol-4-yl]-1-methyl-imidazole-2-carboxamide; formate]
10 | 390 nM | CCNc1ccc(-n2cc(-c3cnc(C(=O)Nc4ccc(C(=O)N5CCN(C(=O)C6CC[N+](C)(C)CC6)CC5)c(Cl)c4)n3C)c(C(F)(F)F)n2)nc1 [Example E3, N-[3-chloro-4-[4-(1,1-dimethylpiperidin-1-ium-4-carbonyl)piperazine-1-carbonyl]phenyl]-5-[1-[5-(ethylamino)-2-pyridyl]-3-(trifluoromethyl)pyrazol-4-yl]-1-methyl-imidazole-2-carboxamide; formate]

Same assay, conditions: Acinetobacter baumannii, ATCC17961, 16 h, read-out: ATCC 17961 IC90

Row | SMILES | IC90
11 | Cn1c(-c2cn(-c3ncccn3)nc2C(F)(F)F)cnc1C(=O)Nc1ccc(C(=O)N2CCN(C(=O)C3CC[N+](C)(CC4CNC4)CC3)CC2)c(Cl)c1 (centres unmarked) [Example C1, N-[4-[4-[1-(Azetidin-3-ylmethyl)-1-methyl-piperidin-1-ium-4-carbonyl]piperazine-1-carbonyl]-3-chloro-phenyl]-1-methyl-5-[1-pyrimidin-2-yl-3-(trifluoromethyl)pyrazol-4-yl]imidazole-2-carboxamide; formate] | 410 nM
12 | Cn1c(-c2cn(-c3ccc(N)cn3)nc2C(F)(F)F)cnc1C(=O)Nc1ccc(C(=O)N[C@H]2[C@@H]3CN(C(=O)N[C@@H]4C[N+](C)(C)C[C@H]4O)C[C@@H]32)c(Cl)c1 (racemic) [Example D18, (exo)-6-[[4-[[5-[1-(5-Aminopyridin-2-yl)-3-(trifluoromethyl)pyrazol-4-yl]-1-methylimidazole-2-carbonyl]amino]-2-chlorobenzoyl]amino]-N-[rac-(trans)-4-hydroxy-1,1-dimethylpyrrolidin-1-ium-3-yl]-3-azabicyclo[3.1.0]hexane-3-carboxamide; formate] | 290 nM
13 | Cn1c(-c2cn(-c3ncccn3)nc2C(F)(F)F)cnc1C(=O)Nc1ccc(C(=O)N2CCN(C(=O)C[N+]3(C)CC[C@@H](O)C3)CC2)c(Cl)c1 (stereo partly drawn) [Example A6, N-[3-chloro-4-[4-[2-[(3R)-3-hydroxy-1-methyl-pyrrolidin-1-ium-1-yl]acetyl]piperazine-1-carbonyl]phenyl]-1-methyl-5-[1-pyrimidin-2-yl-3-(trifluoromethyl)pyrazol-4-yl]imidazole-2-carboxamide; formate] | 1300 nM
14 | Cn1c(-c2cn(-c3ncccn3)nc2C(F)(F)F)cnc1C(=O)Nc1ccc(C(=O)N[C@H]2[C@@H]3CN(C(=O)[C@@H]4C[C@@H](O)C[N+]4(C)C)C[C@@H]32)c(Cl)c1 (racemic) [Example B8, rac-(2R,4S)-2-((1R,5S,6S)-6-(2-chloro-4-(1-methyl-5-(1-(pyrimidin-2-yl)-3-(trifluoromethyl)-1H-pyrazol-4-yl)-1H-imidazole-2-carboxamido)benzamido)-3-azabicyclo[3.1.0]hexane-3-carbonyl)-4-hydroxy-1,1-dimethylpyrrolidin-1-ium] | 1500 nM
